{"source": "patent US20150098969A1", "about": "“ALTERNARIA PEPTIDES” (priority 2012, published 2015)", "note": "Where no end group is shown, it is not given here. [ ]: non-standard residue; d: D form. pGlu = O=C1CC[C@@H](C(=O)O)N1; Nle = CCCC[C@H](N)C(=O)O", "data": [{"system": "Peripheral blood mononuclear cells (PBMCs)", "experiment": "Cytokine release assay (multiplex bead assay IL-10, IL-13, IFN-g) and analysis of population coverage", "assay_type": "cell-based, human", "details": "cytokine release greater than 50 pg/ml in one or more of IL-13, IL-10, IFN-g; 50 mould allergic subjects; 100 μg/ml; 5 days", "experimental": "(§1) Polypeptides for use in this assay were manufactured at small scale (approximately 10 mg batch size, non-GMP). […] Polypeptides were added to wells in a volume of 100 μl containing polypeptides at a concentration of […], such that subsequent addition of 100 μl of cells would create a final assay concentration of 100 μg/ml.\n(§2) Peripheral blood mononuclear cells (PBMCs) were isolated from heparinised blood by Ficoll density gradient centrifugation. […] Following stimulation, culture supernatants (100 μl) were harvested for testing by multiplex bead assay.\n(§3) Multiplex cytokine bead assays (IL-10, IL-13, Interferon gamma (IFN-g)) were performed on thawed culture supernatants according to the manufacturer's instructions. Single measurements were performed for each culture supernatant sample. After completion of the multiplex assay, individual cytokine levels were determined by interpolation from the standard curve generated in the assay. A positive result was taken as a cytokine release of greater than 50 pg/ml in one or more of the IL-13, IL-10 and IFN-g assays. The number of responders out of 50 mould allergic subjects tested was calculated for each polypeptide for the three cytokines.\n(§4) An analysis of population coverage was carried out to determine what polypeptides could advantageously capture additional responses from the population when included in combination with other peptides. The number of subjects in the population displaying IL-13 or IFN-g responses to at least one, two or three polypeptides included in a given combination was analysed.\n(§5) An analysis of population coverage was then carried out for additional combinations of polypeptides identified as having preferable pharmaceutical development characteristics. The number of subjects in the population displaying IL-13 or IFN-g responses to at least one, two or three polypeptides included in a given combination was analysed.", "units": {"% responders": "%"}, "values": [{"substance": "AEVYQKLKALAKK [Alt12]", "% responders": 38}, {"substance": "AEVYQKLKALAKKTYGQ [Alt13A]", "% responders": 86}, {"substance": "DITYVATATLPNYSR [Alt02A]", "% responders": 30}, {"substance": "GLHFRERKTGSLVIT [Alt21]", "% responders": 38}, {"substance": "GWGV-Nle-VSHRSGET (GWGV[Nle]VSHRSGET) [Alt14A]", "% responders": 56}, {"substance": "GWGVMVSHRSGET [Alt14]", "% responders": 44}, {"substance": "GYTGKIKIA-Nle-DVASSE (GYTGKIKIA[Nle]DVASSE) [Alt15A]", "% responders": 42}, {"substance": "GYTGKIKIAMDVASSE [Alt15]", "% responders": 56}, {"substance": "HEIYVVDRVSAP [Alt30]", "% responders": 36}, {"substance": "IEKLRSNITVQYDI [Alt33]", "% responders": 44}, {"substance": "IFRSLSKEDPDY [Alt04]", "% responders": 6}, {"substance": "IFRSLSKEEPDY [Alt04A]", "% responders": 4}, {"substance": "KDAYITLVTLPKSS [Alt03]", "% responders": 22}, {"substance": "KDITYVATATLPNY [Alt02]", "% responders": 36}, {"substance": "KEYQKIFPSIQVI [Alt09]", "% responders": 6}, {"substance": "KKDAYITLVTLPKSS [Alt03A]", "% responders": 16}, {"substance": "KKVS-Nle-AIAKAAAAEK (KKVS[Nle]AIAKAAAAEK) [Alt11A]", "% responders": 44}, {"substance": "KKVSMAIAKAAAAEK [Alt11]", "% responders": 36}, {"substance": "KKYAGVFVSTGTLGGGK [Alt18]", "% responders": 50}, {"substance": "KLFQVAETLPQEVLDK [Alt17]", "% responders": 30}, {"substance": "KLWHS-Nle-IP-Nle-GRDAK (KLWHS[Nle]IP[Nle]GRDAK) [Alt24A]", "% responders": 40}, {"substance": "KLWHSMIP-Nle-GRDAK (KLWHSMIP[Nle]GRDAK) [Alt24C]", "% responders": 36}, {"substance": "KLWHSMIPMGRDAK [Alt24]", "% responders": 34}, {"substance": "KQLL-Nle-LSAKR-Nle-KVAFK (KQLL[Nle]LSAKR[Nle]KVAFK) [Alt05A]", "% responders": 10}, {"substance": "KQLL-Nle-LSAKRMKVAFK (KQLL[Nle]LSAKRMKVAFK) [Alt05B]", "% responders": 12}, {"substance": "KQLLMLSAKR-Nle-KVAFK [Alt05C]", "% responders": 16}, {"substance": "KQLLMLSAKRMKVAFK [Alt05]", "% responders": 2}, {"substance": "KRSLLVFAVRSS-Nle-ELRK [Alt27A]", "% responders": 42}, {"substance": "KRSLLVFAVRSSMELRK [Alt27]", "% responders": 40}, {"substance": "KSAFRSIEPELTVYK [Alt10A]", "% responders": 34}, {"substance": "KTYVATATLPNY [Alt02B]", "% responders": 22}, {"substance": "KYRRVVRAGVKVAQTAR [Alt34A]", "% responders": 38}, {"substance": "KYWLYFYKLHPEK [Alt32]", "% responders": 36}, {"substance": "LAITYNSRAEGAEK [Alt20]", "% responders": 38}, {"substance": "LQFTLYRPRDLLS [Alt07]", "% responders": 10}, {"substance": "NEWRDFARVNSISP [Alt23]", "% responders": 40}, {"substance": "NWLTLHTAALGPTAK [Alt31]", "% responders": 58}, {"substance": "PyrKLKALAKKTYGQ ([pGlu]KLKALAKKTYGQ) [Alt13]", "% responders": 40}, {"substance": "SAFRSIEPELTVY [Alt10]", "% responders": 42}, {"substance": "SAKR-Nle-KVAFKLDIEK (SAKR[Nle]KVAFKLDIEK) [Alt06A]", "% responders": 10}, {"substance": "SAKRMKVAFKLDIEK [Alt06]", "% responders": 16}, {"substance": "SLGFNIKATNGGTLD [Alt01A]", "% responders": 26}, {"substance": "SYNVAKAGCIHLAK [Alt22]", "% responders": 46}, {"substance": "SYNVAKAGSIHLAK [Alt22A]", "% responders": 44}, {"substance": "TLYRPRDLLSLLNE [Alt08]", "% responders": 10}, {"substance": "TYYNSLGFNIKATNGGTL [Alt01]", "% responders": 20}, {"substance": "WSWKIGPAIATGNT [Alt28]", "% responders": 52}, {"substance": "YEKYRRVVRAGVKV [Alt34]", "% responders": 38}]}, {"system": "Peripheral blood mononuclear cells (PBMCs)", "experiment": "Cytokine release assay (multiplex bead assay IL-10, IL-13, IFN-g) and analysis of population coverage", "assay_type": "cell-based, human", "details": "responders out of 50 individuals", "experimental": "as §1, §2, §3, §4, §5", "values": [{"substance": "AEVYQKLKALAKKTYGQ [Alt13A]", "individuals showing a response": "34/50"}]}]}
